Non-standard residues stand in square brackets, D forms with d. Residues, ends and D or L forms follow the SMILES beside them. ξ: configuration not given here. *: point of attachment. Boc = CC(C)(C)OC(=O)*; ξA = CC(N)C(=O)O; NHNH2 = NN*
melting point	SMILES
204 °C	CNC(=O)c1ccccc1Nc1nc(Nc2cccc3c2C(=O)N(C)CCN3C)ncc1Cl
163 °C	CC(=O)Nc1cc2c(cc1Oc1ccc(F)cc1F)C(=O)CC2c1ccccc1 (configuration not stated)
206 to 207 °C	Nc1cc(=O)n(-c2c(Cl)cc(C(F)(F)F)cc2Cl)[nH]1
225 to 226 °C	Cc1ccc2nc(-c3ccc(C#N)cc3)cn2c1
192 °C	CCCCn1nnc2cc(C(=O)O)ccc21
150 to 151 °C	C=CCNc1nc(NC(C)C)nc2ccc([N+](=O)[O-])cc12
97 to 98 °C	CCC1(O)CC(=O)OCc2c1ccnc2OC (configuration not stated)
148 to 149 °C	COc1cccc(CC(=O)O)c1OCCCc1cn(-c2ccc(Cl)cn2)nc1C(C)C
248 to 250 °C	O=c1ccc(S(=O)(=O)c2cc3cccc(Cl)c3[nH]2)n[nH]1
160 to 162 °C	CN1CCC(c2c[nH]c3ccc(OS(=O)(=O)c4ccc(F)c(F)c4F)cc23)CC1
61.5 to 62.5 °C	CCCCCCCCCCCCNC(=O)ON=C(C1=C(Br)C(=O)C(C)(C)O1)c1ccccc1
200 to 204 °C	CCCn1c(=O)c2c(nc(/C=C/c3ccc(OC)c(O)c3)n2C)n(CCC)c1=O
268 to 270 °C	O=c1cc(-c2ccc([N+](=O)[O-])cc2)c2c(O)cc(O)cc2o1
152 to 163 °C	CCc1nc2cc(C(N)=O)c(Cl)cc2n1-c1ccc(CCNC(=O)NS(=O)(=O)c2ccc(C)cc2)cc1
221 to 223 °C	CC(NC(=O)CNC(=O)CNC(=O)CNC(=O)OC(C)(C)C)C(=O)NCC(=O)NN (configuration not stated) (Boc-GGG[ξA]G-NHNH2)
138 to 140 °C	O=C1C=CC(=C(c2ccc3ccccc3c2)c2ccc3ccccc3c2)O1
73 to 75 °C	CCCCCCCCCCCCCCCCCC(=O)OC(CO)CO
208 to 209 °C	Cc1ccc(C(NC(c2ccccc2)c2ccccc2)P(O)O)cc1 (configuration not stated)
227 to 230 °C	O=c1oc2c(ccc3ccccc32)c2c1CNCC2
148 °C	COc1ccc(C(=O)Nc2cc(NC(=O)c3cccc(N4CCOCC4)c3)ccc2Cl)cc1OC
90 to 92 °C	COc1cc(Cl)c(OC)cc1C
268 °C	O=C(C=Cc1ccc(Br)s1)Nc1nnn[nH]1
101 to 102 °C	Cn1nc(C(F)(F)F)cc1Oc1ccnc(-c2ccc(F)cc2)n1
128 to 131 °C	Cc1cccc(NC(=O)OC(C)(C)C)c1CNc1cccn2c(C)c(C)nc12

melting point	SMILES
51 °C	CC1COc2c(ccc(F)c2F)N1 (configuration not stated)
275 to 276 °C	COc1ccc(NC=C(C#N)C(=O)Nc2cc(OC)c(Cl)cc2Cl)cc1F
175 to 176 °C	COC(=O)c1ccc(Cc2c(Cl)n(C)c3cc(Cl)c(CC(C)NC(=O)N(C)C)cc23)c(OC)c1 (configuration not stated)
220 to 221 °C	COc1ccc(NC(=O)c2ccc(-c3ccc(-c4noc(C)n4)cc3C)cc2)cc1C=CCN(C)C
140 °C	Cc1nc2scc(C)n2c(=O)c1CCN1CCC(C2(c3ccc(F)cc3)OCCO2)CC1
169 to 171 °C	COC(=O)/C=C/Cn1c(=O)c2cc(C(=O)NCc3ccc(OC)cc3)sc2n(C)c1=O
200 to 201 °C	O=S1(=O)NCN(C2CC2)c2cc(Br)cc(C(F)(F)F)c21
145 to 148 °C	CC(C)(COc1ccc(O)c(C(N)=O)c1)[N+](=O)[O-]
119 to 120 °C	COc1ccc(-c2coc3ccc(-c4nnc(SCc5cccc(C(F)(F)F)c5)o4)cc23)cc1
236 to 239 °C	COc1ccc2[nH]cc(/C=C/C(=O)c3ccncc3)c2c1
148 °C	CN1CCC(c2ccc(Oc3ccccc3)cc2)(C(C)(C)O)CC1
208 to 211 °C	CNC(Cc1c[nH]c2c(Cl)cccc12)C(=O)O (configuration not stated)
182 to 184 °C	O=c1ccc2c(C(F)(F)F)cc(C(F)(F)F)nc2[nH]1
147 to 148 °C	Cc1ccc2c(c1)C(NC(=O)CCl)CC(C)(C)O2 (configuration not stated)
72 to 75 °C	CN(C)C(c1cccc(F)c1)C1CCC(=O)CC1 (configuration not stated)
160 to 161 °C	COc1cccc(Oc2c(NS(=O)(=O)c3ccc(C(C)(C)C)cc3)ncnc2OCCOc2ncc(-c3ccccc3)cn2)c1
> 300 °C	N#CNc1nc2ccc(Cl)cc2[nH]1
53 to 55 °C	CSc1ccc(CCCC(=O)O)cc1
215 to 216 °C	CCCc1nc2c(N)nc3cc(C(F)(F)F)ccc3c2s1
87 to 88 °C	COCc1cc(Oc2ccc3c(C(=O)OC)cccc3c2)ncn1
71 to 72 °C	CC(C)c1cc(Oc2ccccc2)cc(C(C)C)c1N
216 to 217 °C	CN1C(=O)NCc2cc(Br)cnc21
146 to 148 °C	Cc1cc(C(=O)c2ccc(O)cc2)ccc1[N+](=O)[O-]
219 to 220 °C	CCOC(=O)CCC1(NC(=O)c2ccc(Cl)c(Cl)c2)C(=O)N(CC(=O)O)c2ccccc21 (configuration not stated)

melting point	SMILES
118 to 119 °C	O=[N+]([O-])c1cnc2ccccc2c1Cl
207 to 209 °C	C[Si](C)(C)c1ccc(O)c(C(=O)C=C(O)c2ccc(C(=O)O)cc2)c1
203 to 205 °C	CC(C)(C)c1cc(CCc2ccccc2NC(=O)NC(C)(C)c2ccc(Cl)c(Cl)c2)cc(C(C)(C)C)c1O
144 to 146 °C	CCOC(=O)CCCOc1ccc(C(N)=O)cc1
181 to 182 °C	Cc1cc(=O)[nH]c2nc(OCCCCN3CCN(c4cccc(Cl)c4Cl)CC3)ccc12
81 to 83 °C	CS(=O)(=O)OCCN1c2ccccc2Oc2ccccc21
176 to 177 °C	COc1ccc(S(=O)(=O)C2(C(=O)O)CCN(Cc3ccc(C)cc3)CC2)cc1
74 to 75.5 °C	CCOC(=O)c1csnc1-c1ccc(OC)c(OC)c1
227 to 228 °C	NC(=O)c1c(CN2CCC(c3ccccc3)(c3ccccc3)CC2)ncn1Cc1ccc(Cl)cc1
166 to 167 °C	CC(C)S(=O)(=O)c1cc(O)c(N)c(C#N)c1
112 to 113 °C	COc1cccc(CCSc2c(O)cc(-c3ccccc3)oc2=O)c1
267 to 271 °C	Fc1ccccc1-c1nc2ncncc2[nH]1
72 to 74 °C	COC(=O)c1cncc(SCc2ccc(OC)cc2)c1
116 to 119 °C	CNC(=O)NCCn1c(-c2ccc(CN3C(C)COCC3C)cc2)csc1=Nc1ccc(F)c(C)c1 (configuration not stated)
85 to 89 °C	CC1(C)C(CC(Cl)(Cl)Cl)C1C(=O)O (configuration not stated)
148 to 150 °C	COc1ccc(C=CC2=NN=C(C)Cc3cc(OC)c(OC)cc32)c(OC)c1
227 to 230 °C	CCOC(=O)c1cn([C@@H]2C[C@@H]2F)c2cc(F)ccc2c1=O
107 to 108 °C	CCOC(=O)[C@@H](O)[C@@H]1OC(=O)c2cc(OC)c(OS(=O)(=O)c3ccc(C)cc3)cc21
278 to 280 °C	CCOC(=O)c1nc(N)sc1-c1cn2ccc(C)cc2n1
188 to 191 °C	O=C(Nc1cccc(C(F)(F)F)c1)c1ccccc1O
62 to 65 °C	O=C(Nc1ccc(C(F)(F)F)cc1)Nc1ccc(S(=O)(=O)NCCN2CCOCC2)cc1
238 to 239 °C	Cn1c(Nc2c(Cl)cccc2Cl)nc2ccc3c(c21)C(=O)NC(C)(C)N3
> 270 °C	Oc1cccc2c1cc(C1=NCCN1)n2-c1ccccc1
218 to 220 °C	Clc1cccnc1-c1ccc2[nH]nc(Nc3cc[nH]n3)c2c1

melting point	SMILES
138 to 139 °C	O=C(Nc1ccc(-n2nc(C(F)(F)F)cc2C(F)(F)F)cc1)c1ccc(F)c(Cl)c1
153 to 155 °C	CSc1nc(Cl)cc2cnc(C)n12
122 to 124 °C	N=C(NC(c1ccccc1)c1ccccc1)N1CCOCC1
149 to 150 °C	COC(=O)NN=Cc1ccccc1N
200 to 212 °C	O=c1ccn2c(c1O)C(c1ccc(Br)cc1)OCC2 (configuration not stated)
81 to 82 °C	O=C1C2=C(CCCC2)C(=O)N1c1ccc(Cl)cc1F
95 to 95.5 °C	Cc1c(CCC2C(=O)OCCC2OC2CCCCO2)c2c(c(C)c1OCc1ccccc1)CCC(C)(C)O2 (configuration not stated)
83 to 84 °C	Oc1ccc(Nn2cccc2)c2ccccc12
186 to 190 °C	C[C@H]1CN(c2c(F)cc3c(=O)c(C(=O)O)cn(C4CC4)c3c2Br)C[C@H]1N (relative stereo)
93 to 95 °C	COc1cc(C(C)=O)ccc1SCCCN1CCC(c2noc3cc(F)ccc23)CC1
138 to 140 °C	CCOCc1nc2cnc3ccc(OCc4ccccc4)cc3c2n1CC(C)(C)O
120 to 122 °C	CC(C)C(=O)Nc1cccc(N(CCO)CCO)c1
194 to 197 °C	CC1(C)CC(=NN)c2ccccc21
> 250 °C	O=C(O)Cn1c(=O)c(=O)[nH]c2ccc3ccc(-n4ccc(CN5CC=C(c6ccccc6)CC5)c4)cc3c21
100 to 101 °C	COc1ccc2c(c1)Cc1cc(CCC(C)=O)ccc1-2
105 to 107 °C	CN1CCN(c2nn(C(=O)c3ccccc3)c3ccc(Cl)cc23)CC1
199 to 201 °C	CCCc1c(OCC(O)COc2ccc3c(=O)cc(C(=O)O)oc3c2CCC)ccc(C(C)=O)c1O (configuration not stated)
63.5 to 64.5 °C	N#CCCSc1nnsc1-c1ccccc1
162 °C	CCOC(=O)N1CCC(Nc2nc3ccccc3n2Cc2ccccn2)CC1
100 to 102 °C	COc1ccc2c(c1OC)C[C@@H](C1CCN(CCc3ccccc3)CC1)O[C@H]2CN (relative stereo)
159 °C	CSC1C(=O)Nc2ccc(C3=NNC(=O)SC3C)cc21 (configuration not stated)
164 °C	CC1NC(=O)CC2(C)CC1c1ccccc1O2 (configuration not stated)
253 to 254 °C	CSc1nc2cc(Cl)c(S(N)(=O)=O)cc2[nH]1
190 to 191 °C	CCOC1=NS(=O)(=O)c2cccc([N+](=O)[O-])c21

SMILES	melting point
N#CCc1ccc(OCCCN2CCN(C34CC5CC(CC(C5)C3)C4)CC2)cc1	136 to 138 °C
CCCN(CCC)C1CCc2ccc(NC(=O)C=NO)cc2C1 (configuration not stated)	82 to 85 °C
FC(F)(F)C1(c2cc(Cl)cc(Cl)c2)CC(c2ccc(Br)nc2)=NO1 (configuration not stated)	147 to 148 °C
CSc1ccc(CN2CC(C)(C)C(Oc3ccc(C#N)c(C(F)(F)F)c3)C2=O)cc1 (configuration not stated)	44.1 to 44.8 °C
COc1cccc([C@]23CCN(C)C[C@@H]2CCC2(C3)OCCO2)c1 (relative stereo)	124 to 126 °C
COc1ccc(CNS(=O)(=O)Cc2ccc3[nH]cc(CCN(C)C)c3c2)cc1	200 to 201 °C

Reference: a melting point compilation (Tetko et al.; mined from patent text by program, amines drawn as free bases though some values may be those of a salt)
